Assay results published in patent US5693756A, “Amiloride-sensitive sodium channel and method of identifying substances which stimulate or block salty taste perception” (The Johns Hopkins University, priority 1995, dated 1997).

Tests used:
αENAC [1] = biological target: T1, αENAC (Rattus norvegicus, UniProt P37089); assay: [3H]phenamil binding to membranes from HEK-293 cells transfected with native αENAC
T1 construct: alpha subunit transfected alone
T1 sequence (P37089 1-698): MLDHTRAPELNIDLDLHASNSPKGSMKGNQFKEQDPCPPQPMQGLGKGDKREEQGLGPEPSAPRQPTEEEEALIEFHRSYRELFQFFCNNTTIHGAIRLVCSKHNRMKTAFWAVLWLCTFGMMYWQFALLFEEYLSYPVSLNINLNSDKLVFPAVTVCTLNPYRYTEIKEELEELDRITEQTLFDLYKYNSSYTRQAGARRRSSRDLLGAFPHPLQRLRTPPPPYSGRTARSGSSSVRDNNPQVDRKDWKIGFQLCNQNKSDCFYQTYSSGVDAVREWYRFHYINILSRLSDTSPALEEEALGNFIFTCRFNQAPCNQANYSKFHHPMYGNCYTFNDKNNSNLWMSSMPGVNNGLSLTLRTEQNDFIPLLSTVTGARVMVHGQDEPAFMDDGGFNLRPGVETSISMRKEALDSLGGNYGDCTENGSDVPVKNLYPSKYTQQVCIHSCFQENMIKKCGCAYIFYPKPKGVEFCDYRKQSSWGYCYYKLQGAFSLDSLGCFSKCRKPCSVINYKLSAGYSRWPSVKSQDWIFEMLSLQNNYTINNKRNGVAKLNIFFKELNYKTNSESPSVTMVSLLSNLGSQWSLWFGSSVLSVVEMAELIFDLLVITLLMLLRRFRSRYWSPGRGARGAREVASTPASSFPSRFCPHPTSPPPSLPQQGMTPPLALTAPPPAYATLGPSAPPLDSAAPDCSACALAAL
Excerpt: (§1) Amiloride sensitive sodium channels have been extensively characterized in intact tissues by the binding of radioactive ligands. […] To limit variations in expression of individual clones, a pool of stably expressed cells (about 30 clones) that were mixed and propagated 3-4 times were used for the binding assay.
(§2) The full length cDNA of αENAC obtained by screening a rat taste cDNA library as described above (also described by Li et al., 1994, Proc. Natl. Acad. Sci. USA, 91:1814-1818, the disclosure of which is incorporated herein by reference) was cut with Not I and Xho I and inserted into an expression vector pcDNA-III (Invitrogen). The PCR product of the alternatively spliced form αENACa was cut with Bcl I to replace the corresponding region of native αENAC in pcDNA III. Thus the native form (αENAC) and an alternatively spliced form (αENACa) of the alpha subunit of ENAC in the expression vector was constructed for stable expression in HEK-293 cells. DNA (10 μg) was then transfected into HEK-293 cells by the calcium phosphate technique. Stable expression clones of cells were selected by exposure for 4-6 weeks to a medium containing 500 μg/ml G418.
(§3) Transfected HEK-293 cells were harvested in cold (4° C.) binding buffer containing 1 mM EDTA, 15 mM Tris-HCl (pH 7.7), 1 μM pepstain A, 0.1 μM aprotinin, 0.1 mM phenylmethylsulfonyl fluoride and 10 μM leupeptin. Cells were then homogenized, centrifuged and the pellet resuspended in the binding buffer at 1-2 mg/ml concentration. The reaction mixture (0.2 ml) containing [^3 H]phenamil ([…]) and 100 μg protein was incubated at 4° C. for 90 minutes and the reaction terminated by rapid filtration through Whatman GF/B glass fiber filters pretreated with 0.3% polyethyleneimine. Amiloride (Sigma) suspended in 50% dimethylformamide was used as a competitor in the binding assay. Proteins was assayed by a kit (Pierce) with bovine serum albumin as a standard.
(§4) [^3 H]phenamil binding in HEK-293 cells transfected with native αENAC or alternatively spliced αENACa are compared in FIGS. 9A and 9B. […]

αENACa [2] = biological target: T2, αENACa (Rattus norvegicus, UniProt P37089); assay: [3H]phenamil binding to membranes from HEK-293 cells transfected with αENACa
T2 construct: expressed in transfected cells
T2 sequence (P37089 with tags, fused parts or gaps limits assumed): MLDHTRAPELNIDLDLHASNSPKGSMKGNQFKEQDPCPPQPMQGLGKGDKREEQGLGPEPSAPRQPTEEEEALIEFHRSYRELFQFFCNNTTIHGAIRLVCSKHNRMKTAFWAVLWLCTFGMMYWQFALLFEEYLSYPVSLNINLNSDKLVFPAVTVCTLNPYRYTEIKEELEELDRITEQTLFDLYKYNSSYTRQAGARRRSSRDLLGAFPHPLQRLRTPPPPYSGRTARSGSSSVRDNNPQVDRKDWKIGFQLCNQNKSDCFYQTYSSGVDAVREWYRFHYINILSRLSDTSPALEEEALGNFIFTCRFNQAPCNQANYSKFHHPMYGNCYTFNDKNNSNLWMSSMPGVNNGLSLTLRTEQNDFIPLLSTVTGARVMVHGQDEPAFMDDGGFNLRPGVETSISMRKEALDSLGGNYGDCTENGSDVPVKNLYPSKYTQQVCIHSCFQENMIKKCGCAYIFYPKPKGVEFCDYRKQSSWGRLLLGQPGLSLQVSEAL
Excerpt: as §1, §2, §3, §4

αENAC [3] = biological target: T1, αENAC; assay: Inhibition by amiloride of [3H]phenamil binding to membranes from HEK-293 cells transfected with native αENAC; conditions: 50 nM [3H]phenamil, 100 μg membrane protein, increasing concentrations of amiloride
Method: as §3
(§5) Membrane protein (100 μg) was incubated with 50 nM [^3 H]phenamil in the absence or presence of increasing concentrations of amiloride. Three independent experiments were performed in duplicate. Results are presented of a typical experiment with values varying less than 20%.

αENACa [4] = biological target: T2, αENACa; assay: Inhibition by amiloride of [3H]phenamil binding to membranes from HEK-293 cells transfected with αENACa; conditions: 50 nM [3H]phenamil
Method: as §3, §5

levels of [3H]phenamil binding, versus cells transfected only with the expression vector (αENAC [1]; HEK-293 cells transfected with native αENAC, 50 nM [3H]phenamil, 1 mM amiloride) | Bmax (αENAC [1]; saturation analysis, membranes of HEK-293 cells transfected with αENAC) [pmol/mg protein] | Kd (αENAC [1]; saturation analysis, membranes of HEK-293 cells transfected with αENAC, 4° C., 90 minutes) [nM] | specific [3H]phenamil binding, versus cells not transfected with the channel (αENACa [2]; HEK-293 cells transfected with αENACa, 50 nM [3H]phenamil, 1 mM amiloride) | Bmax (αENACa [2]; saturation analysis, membranes of HEK-293 cells transfected with αENACa) [pmol/mg protein] | Kd (αENACa [2]; saturation analysis, membranes of HEK-293 cells transfected with αENACa, 4° C., 90 minutes, read-out: apparent Kd) [nM] | Compound | inhibition of [3H]phenamil binding (αENAC [3]) | inhibition of [3H]phenamil binding (αENACa [4]; 100 μg membrane protein, increasing concentrations of amiloride, αENACa) | potency in competing for [3H]phenamil binding, αENACa transfected cells relative to native channel (αENACa [4]; αENACa versus native αENAC)
not significantly greater | 18 | 270 | doubling | 28 | 260 | NC(=Nc1ccccc1)NC(=O)c1nc(Cl)c(N)nc1N [[^3 H]phenamil, phenamil] |  |  | 
 |  |  |  |  |  | N=C(N)NC(=O)c1nc(Cl)c(N)nc1N [amiloride, N-amidino-3,5-diamino-6-chloropyrazine carboxamide] | inhibited | inhibited | about 10 times
